Data reported in US20150051246A1 (priority 2013, published 2015).

Legend:
healthy adults = assay: EEG Event Related Potentials (P300, N400, P600) during VLT in healthy adults; assay type: in vivo, human; conditions: for ERP P600 amplitude (in words): 100 mcg, during VLT
Experimental: An electroencephalogram (EEG) cap was used to place a set of 32 EEG electrodes according to the international 10-20 system on the subjects. Event Related Potentials (ERPs) were extracted by averaging the responses within an epoch of 100 ms before and 1000 ms after stimulus onset covering P300, N400, and P600. Separate averages were made for correct and incorrect responses within a task and for different trial types. EEG measurements were done simultaneously with VLT testing. ERPs were calculated from the words that were called during immediate recall (encoding), and from the words that were recognized and from those that were not during the recognition condition at 45 minutes. The ERP components of P300, N400, and P600 were compared to examine whether the initial stimulus processing during the learning trials differs from word to word. Finally, ERPs to the old and new items during the recognition task were measured.
Statistical Data Analyses Human data was analyzed using IBM SPSS Statistics version 20. General Linear Models for repeated measures were applied with the placebo condition included as contrast. Statistical outcomes for Tests of Within-Subjects Effects and Tests of Within-Subjects Contrasts were regarded for immediate and delayed free recall scores and for the summed immediate recall score (i.e. immediate 1+immediate 2+immediate 3). The factor Treatment (4 levels; placebo, roflumilast 100 mcg, roflumilast 300 mcg and roflumilast 1000 mcg) was included as a within subjects factor. For the analysis of the EEG data, the factor Channel (5 levels; Fz, FCz, Cz, CPz, and Pz) was included as a second within subjects factor. Peak and latency values of three memory related ERP's were analysed; i.e. P300, N400 and P600. In case of significant findings (p<0.05) post-hoc t-tests were performed to reveal which of the five midline electrodes contributed to the effect

male C57BL/6NCrl mice = assay: Object Location Task (OLT), spatial memory, 24 h retention interval; assay type: in vivo; conditions: for d2 index, discrimination index for T2: 3 h after T1, 24 h interval
From the text: The objective of this study was to evaluate the cognitive improvement effects of Roflumilast on spatial memory employing Object Location Task (OLT) in male C57BL/6NCrl mice. Roflumilast was compared with data of the already established PDE4 inhibitor Rolipram in the same model.
Twenty-four 7 month-old male C57BL/6NCrl mice (Charles River, L'Arbresle, France) were used (average body weights: 27.6 g). The animals were kept under a 12/12-hour light/dark cycle (lights on from 07.00 pm to 07.00 am) with free access to food and water. All testing was done between 09.00 am and maximally 06.00 pm.
Both rolipram (Sigma-Aldrich St. Louis, USA; MW 275.34) and roflumilast (Biocrea, Radebeul, Germany; MW 403.21) were dissolved in dimethylsulfoxide (DMSO) and kept at 4° C.; this stock solution was used for further dilutions in 0.5% methylcellulose. Each of rolipram and roflumilast is used in form of its free base. All injected solutions consisted of 0.5% methylcellulose with a fixed DMSO percentages (1.2%) (vehicle).
For the Object Location Task (OLT), doses of 0.01 mg/kg, 0.03 mg/kg and 0.1 mg/kg of Rolipram or Roflumilast or vehicle were administered subcutaneously (s.c.). Based on previous findings, PDE4 inhibitor single administration was performed 3 hours after the first trial as this has an optimum effect on object memory performance. The injection volume was 5 μl/g.
The OLT apparatus consisted of a circular arena, 40 cm in diameter. Half of the 40 cm transparent polyvinyl chloride wall was covered from the outside with white paper. Two objects were placed symmetrically about 10 cm away from the wall on the separation line, between the transparent and covered side of the arena. Four different sets of objects were available: (1) a cone made of brass (maximal diameter 6 cm and total height 3.8 cm), (2) a transparent glass bottle (diameter 2.7 cm, height 8.5 cm) filled with sand and water, (3) a massive metal cube (2.5 cm×5 cm×7.5 cm) with two holes (diameter 1.5 cm), and (4) a massive aluminum cube with a tapering top (4.5 cm×4.5 cm×8.5 cm).
A testing session comprised two trials of 4 minutes. Before each trial, mice were placed in an empty Makrolon cage (incubation cage) for the same amount of time as the trial (4 min). During the first trial (T1), two identical objects were placed symmetrically about 10 cm away from the wall on the separation line between the transparent and covered side of the arena. After the first exploration period of 4 min, the mouse was put back in its home cage. Mice then received treatment at 3 hours post T1. Subsequently, after a predetermined delay interval (24 h), the mouse was placed in the apparatus for the second trial of 4 min (T2). Two identical objects as in T1 were used; one object was placed in the previously used position, whereas the other was placed in a novel position. The novel position of the object could either be a fixed distance towards the front or a fixed distance towards the back of the arena for both objects. The times spent exploring each object during T1 and T2 were recorded manually using a personal computer. All objects and locations were used in a balanced manner to exclude possible object and/or location preferences. To avoid olfactory cues, the objects were thoroughly cleaned with 70% ethanol after each trial. The testing order of conditions was determined randomly.
The measurements reflected the time spent by the mice in exploring each object during T1 and T2. The time spent in exploring the two identical samples in T1 were represented by ‘a1’ and ‘a2’, respectively. The time spent in exploring the sample and the new object in T2 were represented by ‘a’ and ‘b’, respectively. From these exploration times the following variables were calculated: e1, e2, and d2 (Table 1). The d2 index is a relative measure of discrimination corrected for exploratory activity. […]

[1] = assay type: in vivo, human; conditions: human, in vivo
From the text: An interim analysis has been performed based on the data of 9 subjects of the Impaired Elderly group and 4 subjects of the Healthy Elderly group. For this purpose, cognitive battery test scores (VLT, SMT, Stroop task and BL-VAS) and concentrations of roflumilast and roflumilast-N-oxide in plasma have been analysed and summarized by dose over each scheduled sampling time using descriptive statistics.

In the case of `O=C(Nc1c(Cl)cncc1Cl)c1ccc(OC(F)F)c(OCC2CC2)c1` [roflumilast, N-(3,5-dichloropyridin-4-yl)-3-cyclopropylmethoxy-4-difluoromethoxybenzamide], the “ERP P600 amplitude (in words)” value (healthy adults) was “strongest increase of amplitude”, the “ERP P600 amplitude (in words)” value (healthy adults; listed as Roflumilast) was “increased amplitude” and the “ERP P600 (in words)” value (healthy adults; 300 mcg and 1000 mcg, FIG. 3) was “some effect”. For the same molecule, the “d2 index, discrimination index for T2” value (male C57BL/6NCrl mice; 0.01 mg/kg s.c.) was 0.04, the “d2 index, discrimination index for T2” value (male C57BL/6NCrl mice; 0.03 mg/kg s.c.) was 0.34 and the “d2 index, discrimination index for T2” value (male C57BL/6NCrl mice; 0.1 mg/kg s.c.) was 0.00. The “dose effective in improving spatial memory” value (male C57BL/6NCrl mice; s.c.) was 0.03 mg/kg, the “effect on spatial memory (in words)” value (male C57BL/6NCrl mice; single subcutaneous 0.01 mg/kg) was “nearly no effect” and the “effect on spatial memory (in words)” value (male C57BL/6NCrl mice; single subcutaneous 0.03 mg/kg) was “pronounced effect on spatial memory”. The “effect on spatial memory (in words)” value (male C57BL/6NCrl mice; single subcutaneous 0.1 mg/kg) was “completely no effect” and the exposure [1] was “consistent with those previously reported”.
